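Assay format: 96-well plates, 48-hour exposure. GI50 = concentration required for 50% inhibition of growth. TGI: total growth inhibition.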
What was measured:
Test in all cases: NCI tumour cell line growth inhibition, 48 h
[1] = test system: 786-0 renal
[2] = test system: A498 renal
[3] = test system: A549 NSCLC
[4] = test system: ACHN renal
[5] = test system: BT-549 breast
[6] = test system: CAKI-1 renal
[7] = test system: CCRF-CEM leukemia
[8] = test system: COLO 205 colon
[9] = test system: DU-145 prostate
[10] = test system: EKVX NSCLC
[11] = test system: HCC-2998 colon
[12] = test system: HCT-116 colon
[13] = test system: HCT-15 colon
[14] = test system: HL-60(TB) leukemia
[15] = test system: HOP-62 NSCLC
[16] = test system: HOP-92 NSCLC
[17] = test system: HS 578T breast
[18] = test system: IGROV1 ovarian
[19] = test system: K-562 leukemia
[20] = test system: KM12 colon
[21] = test system: LOX IMVI melanoma
[22] = test system: M14 melanoma
[23] = test system: MALME-3M melanoma
[24] = test system: MCF7 breast
[25] = test system: MDA-MB-231 breast
[26] = test system: MDA-MB-435
[27] = test system: MOLT-4 leukemia
[28] = test system: NCI-H226 lung
[29] = test system: NCI-H23 lung
[30] = test system: NCI-H460 lung
[31] = test system: NCI-H522 lung
[32] = test system: NCI/ADR-RES ovarian
[33] = test system: OVCAR-3 ovarian
[34] = test system: OVCAR-4 ovarian
[35] = test system: OVCAR-5 ovarian
[36] = test system: OVCAR-8 ovarian
[37] = test system: PC-3 prostate
[38] = test system: RPMI-8226 leukemia
[39] = test system: RXF 393 renal
[40] = test system: SF-268 CNS
[41] = test system: SF-295 CNS
[42] = test system: SF-539 CNS
[43] = test system: SK-MEL-2 melanoma
[44] = test system: SK-MEL-28 melanoma
[45] = test system: SK-MEL-5 melanoma
[46] = test system: SK-OV-3 ovarian
[47] = test system: SN12C renal
[48] = test system: SNB-19 CNS
[49] = test system: SNB-75 CNS
[50] = test system: SR leukemia
[51] = test system: SW-620 colon
[52] = test system: T-47D breast
[53] = test system: TK-10 renal
[54] = test system: U251 CNS
[55] = test system: UACC-257 melanoma
[56] = test system: UACC-62 melanoma
[57] = test system: UO-31 renal

C[C@H]1CCC/C=C/[C@@H]2C[C@H](O)C[C@H]2[C@H](O)[C@@H](S(=O)C[C@@H](N)C(=O)O)CC(=O)O1 (stereo partly drawn)
GI50 [1]: < 18.1 nM
GI50 [2]: 30.9 nM
TGI [2]: 149 nM
TGI [3]: > 100000 nM
GI50 [4]: 83.3 nM
TGI [4]: 669 nM
GI50 [5]: 86.2 nM
TGI [5]: > 100000 nM
GI50 [6]: 210 nM
GI50 [7]: 50.8 nM
TGI [7]: 50200 nM
GI50 [8]: 14.4 nM
TGI [8]: 29.3 nM
GI50 [9]: 434 nM
TGI [9]: > 100000 nM
GI50 [10]: 84.2 nM
TGI [10]: > 52300 nM
GI50 [11]: 30.3 nM
TGI [11]: 256 nM
GI50 [12]: 32.5 nM
TGI [12]: 1690 nM
GI50 [13]: 137 nM
TGI [13]: 2260 nM
GI50 [14]: 142 nM
GI50 [15]: 241 nM
TGI [15]: > 100000 nM
GI50 [16]: 42.8 nM
TGI [16]: 1650 nM
GI50 [17]: 15.2 nM
TGI [17]: > 100000 nM
GI50 [18]: 238 nM
TGI [18]: 19100 nM
GI50 [19]: 884 nM
TGI [19]: > 100000 nM
GI50 [20]: < 14 nM
TGI [20]: 60.5 nM
GI50 [21]: 20.3 nM
TGI [21]: 63.6 nM
GI50 [22]: 42.9 nM
TGI [22]: > 100000 nM
TGI [23]: 25.7 nM
GI50 [24]: 30.3 nM
GI50 [25]: 25.1 nM
TGI [25]: 52.8 nM
GI50 [26]: 48 nM
TGI [26]: > 100000 nM
GI50 [27]: 46.4 nM
GI50 [28]: 19.3 nM
GI50 [29]: 86.2 nM
TGI [29]: 8130 nM
GI50 [30]: 245 nM
TGI [30]: > 100000 nM
GI50 [31]: 175 nM
TGI [31]: 870 nM
GI50 [32]: < 16.5 nM
TGI [32]: 384 nM
GI50 [33]: 42.5 nM
GI50 [34]: 44.5 nM
TGI [34]: > 75000 nM
GI50 [35]: > 100000 nM
TGI [35]: > 100000 nM
GI50 [36]: 32.3 nM
TGI [36]: 2840 nM
TGI [37]: > 26200 nM
GI50 [38]: 395 nM
TGI [38]: > 95300 nM
GI50 [39]: 20200 nM
TGI [39]: 86700 nM
GI50 [40]: 20.7 nM
TGI [40]: > 19900 nM
GI50 [41]: 109 nM
TGI [41]: > 100000 nM
GI50 [42]: 35.8 nM
TGI [42]: > 100000 nM
GI50 [43]: 1290 nM
GI50 [44]: 29.1 nM
TGI [44]: > 100000 nM
GI50 [45]: 20.9 nM
TGI [45]: 107 nM
GI50 [46]: 117 nM
TGI [46]: > 82800 nM
GI50 [47]: 156 nM
TGI [47]: 1830 nM
TGI [48]: > 100000 nM
TGI [49]: 19.4 nM
GI50 [50]: 82 nM
GI50 [51]: 53.3 nM
GI50 [52]: 244 nM
TGI [52]: 992 nM
GI50 [53]: 199 nM
GI50 [54]: 70.9 nM
TGI [54]: > 100000 nM
GI50 [55]: < 18.2 nM
TGI [55]: > 100000 nM
GI50 [56]: 29.7 nM
TGI [56]: > 100000 nM
GI50 [57]: 37 nM
TGI [57]: 1620 nM

— PubChem BioAssay (NCI)
